Structures can show the parent of a compound that is named as a salt.
Columns and labels:
Format in all cases: cell-based
[1] = tested on: autophagy proteins (p62, LC3, ATG12-ATG5, ATG12, Beclin-1) in U1 cells; assay: Autophagy protein profile, CBD versus autophagy drugs, in U1 cells and their EVs (Western blot); details: 5 days; for EV-associated LC3 II / EV-associated LC3 I / EV-associated p62: Bafilomycin A1 50 nM, SB 203580 20 μM, Wortmannin 2 nM; for EV-associated LC3 II: vs untreated infected control; for EV-associated LC3 I / EV-associated p62: CBD 10 μM, lower panel
Method: FIGS. 18A-18B are gels showing CBD promotes autophagy turnover, resulting in a decrease in extracellular autophagosomal secretion. A) U1 cells (1×10^6) were treated±CBD (10 μM) for the following incubation periods: 0, 6, 24, and 48 hours. Cells were pelleted and lysed, exosomes from supernatants were enriched with NT80/82 beads overnight at 4° C. Samples were run through SDS-PAGE and western blotted for autophagy proteins (p62 and LC3), and Actin. B) U1 cells (1×10^6) were treated±10 μM CBD (every day), Rapamycin (50 nM), INK128 (50 nM), Bafilomycin A1 (50 nM), SB 203580 (20 μM), Wortmannin (2 nM) for a 5-day incubation period. Cells were pelleted and lysed, exosomes from supernatants were enriched using NT80/82 beads overnight at 4° C. Samples were run through SDS-PAGE and western blotted for autophagy proteins (p62, LC3, ATG12-ATG5, ATG12, Beclin-1), and Actin.
FIGS. 21A-21K are graphs showing normalized densitometry analysis of CBD and autophagy drug treatment on HIV-1 infected monocytes. Intracellular (A) p62, (B) LC3 I, (C) LC3 II, (D) ATG12-ATG5 complex, (E) ATG12, and (F) Beclin-1, and extracellular (G) p62, (H) LC3 I, (I) LC3 II, (J) ATG12-ATG5 complex, and (K) Beclin-1 densitometry counts were calculated from the Western blot data in FIG. 5B, normalized to respective intracellular and extracellular Actin levels, and plotted.
To determine the specific points at which CBD inhibits intracellular and extracellular autophagosome formation and secretion, we compared CBD treatment of U1 monocytes with known inhibitors of different points in the autophagy pathway. Cell viability was assessed among a panel of titrated autophagy drugs and the least toxic concentration per drug was utilized (FIG. 20). We treated U1 cells with CBD (10 μM) every day, Rapamycin (50 nM), INK128 (50 nM), Bafilomycin A1 (50 nM), SB 203580 (20 μM), or Wortmannin (2 nM) for 5 days. Our rationale for using these drugs was that they regulate different steps of autophagy including nucleation inhibition by inhibiting MTOR activity (Rapamycin, INK128) or by inhibiting pre-autophagosomal VPS34 complex activity (Wortmannin, SB 203580), and autophagosome-lysosome fusion inhibition (Bafilomycin A1). Therefore, a side-by-side comparison to CBD would potentially allow for a better definition of which step of autophagosome formation is primarily regulated by CBD. U1 cells were treated with the autophagy regulators and harvested along with their corresponding supernatants for further analysis using Western blot against p62, LC3, ATG12-ATG5 complex, free ATG12, Beclin-1, and Actin. Results in FIG. 18B (intracellular proteins, top panel) show autophagy protein profiles associated with the various autophagy regulators. […] The corresponding supernatants were enriched for EVs and also analyzed for the presence of autophagy proteins.

[2] = tested on: RNA polymerase II (Pol II) loading; assay: Chromatin immunoprecipitation of Pol II, qPCR for TAR DNA; details: U1; CBD 10 μM, Flavo 50 nM; 2-hour and 6-hour; FIG. 15C
Method: FIGS. 15A-15C are graphs and gels showing cannabidiols lower intracellular viral transcription and downstream viral products. U1 cells (1×10^6) were treated with a titration of CBD (1, 5, 10 μM) and THC (1, 5, 10 μg/mL) every day for 5 days. A) Intracellular RNA was isolated and analyzed through RT-qPCR for HIV-1 viral transcripts TAR and env. Each bar represents an average of three independent replicates. B) U1 cells (2×10^6) were treated with a titration of CBD (1, 5, 10 μM) every day for 5 days. Cells pellets were lysed, run through SDS-PAGE, and western blotted for (p-)/NF-κB, autophagosomal markers (p63, LC3), EV biogenesis marker VPS4, viral markers (gp120, Nef, p24), and Actin. C) U1 cells (5×10^6) were treated±CBD (10 μM) and Flavopiridol hydrochloride (50 nM; indicated as Flavo) and incubated for the following time points: 0 minutes, 2 hours and 6 hours. Cells were cross-linked with 1% formaldehyde solution and ChIP-ed for IgG and Pol II. ChIP DNA samples were analyzed via qPCR for TAR and env. Student's t-test was used for statistical analysis, where *p-value≤0.05; **p-value≤0.01, ***p-value≤0.001. […]
U1 monocytes were treated with CBD (10 μM) and Flavo (50 nM) for short periods (0, 2 and 6 hours) due to the fact that HIV-1 transcription activity is a rapid event that can be scored using chromatin immunoprecipitation (ChIP) assay for factor occupancy. […]

[3] = tested on: HTLV-1 infected T-cells (HUT 102); assay: EV release from HTLV-1 infected T-cells, Western blot for Tax, CD63, CD9; details: 10 μM AZT, 10K units IFN-α or both, 5 days, FIG. 6
Method: HTLV-1 infected T-cells (HUT 102) were treated with 10 μM AZT, 10K units of IFN-α, or a combination of the two for 5 days. Resulting supernatants were enriched for extracellular vesicles using NT80/82 and analyzed by Western blot for the presence of Tax, CD63, CD9, and Actin.
The incorporation of the human T-lymphotropic virus type 1 (HTLV-1) protein, Tax, into extracellular vesicles has been implicated in enhanced survival of recipient cells thereby contributing to a cancer phenotype. Applicant examined the effect of Azidothymidine (AZT) and interferon-α (IFN-α), both therapeutics commonly used in the treatment of HTLV-1, on the release of EVs from HTLV-1 infected cells. Here, HTLV-1 infected T-cells (HUT 102) were treated with 10 μM AZT, 10K units of IFN-α, or a combination of the two for 5 days. Resulting supernatants were enriched for extracellular vesicles using NT80/82 and analyzed by Western blot for the presence of Tax, CD63, CD9, and Actin.

[4] = tested on: ESCRT pathway proteins (VPS4); assay: Western blot of ESCRT pathway proteins in U1 whole cell extracts; details: 0.1, 1, 10 μM, 5 days, FIG. 5B
Method: U1 cells were pretreated with cART (45 μM) for 3 days followed by an additional dose of cART and tetracycline antibiotics (10 nM) for 5 days. Cells were lysed, and extracts were used for Western blot analysis for ESCRT proteins [ESCRT-1 (TSG101), -11 (EAP20, EAP45), -III (CHMP6), and exit (VPS4)] and Actin levels. […]
U1 cells were treated with a titration of ethylene glycol-bis(p-aminoethyl ether)-N,N,N′,N′-tetraacetic acid (EGTA) (0.1, 1, and 10 μM) for 5 days and whole cell extracts were analyzed by Western blot for ESCRT pathway proteins and Actin.
Tetracycline class antibiotics including tetracycline, oxytetracycline, minocycline, doxycycline, methacycline, and demeclocycline have the potential to mitigate EV-associated pathogenesis by also modulating EV release. […] The tetracycline antibiotic family are chelators of divalent cations, including Ca2+ and Mg2+. Therefore, Applicant also tried to determine whether the chelating property of Oxytetracycline could possibly be responsible for the manipulation of the ESCRT pathway proteins levels.

[5] = CBD 10 μM every day, Rapamycin 50 nM, INK128 50 nM, FIG. 18B top panel

C[S+]([O-])c1ccc(-c2nc(-c3ccncc3)c(-c3ccc(F)cc3)[nH]2)cc1 (stereo not drawn) [SB 203580]
EV-associated LC3 II [1]: elevated levels
EV-associated LC3 I ([1]; Rapamycin 50 nM, INK128 50 nM): elevated levels
EV-associated p62 ([1]; Rapamycin 50 nM, INK128 50 nM): sustained levels

CN1CC[C@H](c2c(O)cc(O)c3c(=O)cc(-c4ccccc4Cl)oc23)[C@H](O)C1 [Flavo, Flavopiridol hydrochloride hydrate]
Pol II-associated TAR DNA versus untreated [2]: statistically significant decreases

Cc1cn([C@H]2C[C@H](N=[N+]=[N-])[C@@H](CO)O2)c(=O)[nH]c1=O [AZT, 3′-azido-2′3′-di deoxythymidine]
amount of vesicles released (CD63 and CD9) [3]: increase in the amount of vesicles release

O=C(O)CN(CCOCCOCCN(CC(=O)O)CC(=O)O)CC(=O)O [EGTA, ethylene glycol-bis(p-aminoethyl ether)-N,N,N′,N′-tetraacetic acid]
levels of measured ESCRT proteins [4]: no change

CO/C1=C\C(C)=C\[C@@H](C)[C@@H](O)[C@@H](C)C/C(C)=C/C=C/[C@H](OC)[C@@H]([C@@H](C)[C@@H](O)[C@H](C)[C@@]2(O)C[C@@H](O)[C@H](C)[C@@H](C(C)C)O2)OC1=O [Bafilomycin A1]
EV-associated LC3 II [1]: elevated levels
EV-associated LC3 I ([1]; Rapamycin 50 nM, INK128 50 nM): elevated levels
EV-associated p62 ([1]; Rapamycin 50 nM, INK128 50 nM): sustained levels

CC(C)n1nc(-c2ccc3oc(N)nc3c2)c2c(N)ncnc21 [INK128]
intracellular ATG12-ATG5 [1, 5]: low levels
intracellular Beclin-1 [1, 5]: high levels
intracellular LC3 I [1, 5]: low levels
EV-associated LC3 I ([1]; Rapamycin 50 nM, INK128 50 nM): reduction
EV-associated p62 ([1]; Rapamycin 50 nM, INK128 50 nM): reduction

IFN-α
amount of vesicles released (CD63 and CD9) [3]: decreases the amount of vesicles released
